Reference: patent publication US5744462A, “Steroids useful as anti-cancer and anti-obesity agents” (Research Corporation Technologies, Inc., priority 1995, dated 1998)
“And” between values parts separate entries of the source, which are not always exact repeats. Identical values can stand only once. “Also recorded” adds a separate entry of the source.

What was measured:
[1] = in vivo; cited from earlier work
mouse skin DNA = assay: (3H) DMBA binding to skin DNA; type: in vivo, mouse (A/J); conditions: for effect on 3H-DMBA binding to skin DNA: oral, mice, doses well below 400 mg/kg
[2] = Estrogenic / androgenic side-effects, general statements; conditions: in vivo
liver catalase = assay: Liver catalase activity after three weeks of diet treatment; type: in vivo, mouse (female Balb/c); conditions: for CATALASE ACTIVITY / catalase activity, in words: 0.25% of diet; for CATALASE ACTIVITY: control 31.1 ± 6.7, DHEA p < 0.05, clofibrate p < 0.001 vs control; for catalase activity, in words: mice
Procedure: (§1) Female Balb/c mice were housed in polycarbonate cages (6/mice/cage) in animal quarters maintained at 24°±1° C. with 12 hours of light and 12 hours of dark each day. The mice were placed on a diet containing either DHEA, 8354, A, B clofibrate or with no addition. Three weeks later the mice were killed, the livers were perfused with cold saline, weighed, and 5% liver homogenates were prepared for the determination of catalase activity by the spectrophotometric method of Luck (H. Luck, in Method in Enzyme Analysis, H. U. Bergmeyer, Ed. (Verlag Chemie, Weinheim/Bergstrasse, Germany, 1965)). Total protein was measured by the method of Lowry, et al. (O. H. Lowry, N. J. Rosebrough, A. L. Farr, R. J. Randall, J. Biol. Chem., 193, 265 (1951)).

[3] = tested on: mouse epidermis (TPA stimulated 3H-thymidine incorporation); assay: TPA stimulation of 3H-thymidine incorporation in mouse epidermis, oral steroid; type: in vivo, mouse (male ICR)
Procedure: (§2) Tumor promoters, such as TPA, stimulate hyperplasia and DNA synthesis when applied to the skin, and it is believed that this stimulation is an important step in the enhancement of tumorigenesis.
Male ICR mice were orally intubated with steroid suspended in sesame oil (0.5 ml/mouse) at the indicated dose. Mice not receiving steroid were given sesame oil alone. One hour later mice received topical application of TPA and 20 hours later the rate of ^3 H-thymidine incorporation into the epidermis was determined as described in Pashko, L. L., Schwartz, A. G., Abou-Gharbia, M., and Swern, D. (1981), Inhibition of DNA synthesis in mouse epidermis and breast epithelium by dehydroepiandrosterone and related steroids, Carcinogenesis, 2,-717-721.
Experimental conditions are the same as in Table 3.

[4] = Liver weight after three weeks of diet treatment; type: in vivo, mouse (female Balb/c); conditions: 0.25% of diet; for LIVER WEIGHT: control 0.057 ± 0.006, DHEA p < 0.05, clofibrate p < 0.002 vs control; for liver weight, in words: mice
Procedure: as §1

[5] = biological target: purified bovine adrenal G6PDH (Bos taurus, UniProt F1MMK2); assay: G6PDH inhibition test; type: biochemical; conditions: individual determinations; for inhibition at 10 µM / inhibition at 1 µM / inhibition at 0.1 µM: read-out: Percent Inhibition of G6PDH
purified bovine adrenal G6PDH, sequence (F1MMK2 31-70): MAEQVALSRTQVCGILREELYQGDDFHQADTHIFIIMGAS
purified bovine adrenal G6PDH, sequence (F1MMK2 101-575): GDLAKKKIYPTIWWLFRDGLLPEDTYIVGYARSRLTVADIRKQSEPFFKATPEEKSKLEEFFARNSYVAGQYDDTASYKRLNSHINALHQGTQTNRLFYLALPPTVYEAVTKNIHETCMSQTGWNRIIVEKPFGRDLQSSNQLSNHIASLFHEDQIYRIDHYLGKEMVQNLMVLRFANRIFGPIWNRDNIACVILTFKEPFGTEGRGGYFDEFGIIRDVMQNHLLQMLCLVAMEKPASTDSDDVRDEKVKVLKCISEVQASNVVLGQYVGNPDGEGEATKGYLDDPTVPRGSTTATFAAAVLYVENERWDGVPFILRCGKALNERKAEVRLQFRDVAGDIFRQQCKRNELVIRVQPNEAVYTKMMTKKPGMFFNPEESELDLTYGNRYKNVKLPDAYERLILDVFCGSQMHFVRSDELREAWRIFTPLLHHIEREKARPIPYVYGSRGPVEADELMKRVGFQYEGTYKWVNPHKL
Description: The compound listed below are screened as inhibitors of purified bovine adrenal G6PDH activity as one predictor of cancer preventive action. The assay for testing the inhibition of purified bovine adrenal G6PDH is according to the procedure by Oertell, G. W. and Rebelein, I. in Biochem. Biophys. Acta, 184, 459-460 (1969).

[6] = Body weight and food consumption in the DMBA binding experiment; type: in vivo, mouse; conditions: two weeks of feeding
Procedure: Binding of [^3 H]DMBA to mouse skin DNA was determined as described in Pashko, L. L., and Schwartz, A. G. (1983), Effect of food restriction, dehydroepiandrosterone, or obesity on the binding of ^3 H-7,12-dimethylbenz(a)anthracene to mouse skin DNA, J. Gerontol., 38, 8-12. Values are mean±SD for 3 individual determinations, with pooled tissue from 2 mice used for each determination. DHEA or testosterone (400 ug in 0.2 ml acetone) was applied to the skin one hour before [^3 H]DMBA. The mean weight of the food restricted mice was 18.5±1.0 gm, n=6, of the ad libitum fed, 27.4±1.0 gm, n=6, of the ad libitum fed treated with DHEA, 28.2±0.9 gm, n=6, and of the ad libitum fed treated with testosterone, 28.3±0.9 gm, n=6, following two weeks of feeding. The average food consumed was, in gm/mouse/day, 2.2, 3.8, 3.8 and 4.0 for the food restricted, ad libitum fed, ad libitum fed plus DHEA, and ad libitum fed plus testosterone groups, respectively.

[7] = tested on: mouse epidermal DNA (TPA stimulated 3H-thymidine incorporation); assay: TPA stimulation of 3H-thymidine incorporation in epidermis, topical steroid; type: in vivo, mouse (A/J); conditions: no steroid 66, TPA alone 174
Procedure: as §2
Incorporation of ^3 H-thymidine into A/J mouse epidermal DNA was determined as described in Pashko, L. L., Schwartz, A. G., Abou-Gharbia, M. and Swern, D. (1981), Inhibition of DNA synthesis in mouse epidermis and breast epithelium by dehydroepiandrosterone and related steroids, Carcinogenesis, 2, 717-721. Values are mean±SD for 3 separately treated mice in each group 20 hours after TPA application. DHEA or testosterone was added topically in 0.2 ml acetone one hour before TPA addition.

[8] = Anti-obesity action, body weight, male A/J mice; type: in vivo, mouse (male A/J); conditions: 0.45% in diet
Procedure: Male A/J (5 weeks old) mice were obtained from the
Jackson Laboratory and were housed in polycarbonate cages (6
mice/cage) in animal quarters maintained at 24 ± 1° C. with 12
hours of light and 12 hours of darkness each day. One week
after arrival, the mice were placed on a diet containing
either DHEA, 8353, or without steroid. Animals were weighed

[9] = Estrogenic and anti-estrogenic activity, uterine weight; type: in vivo, rat (female CD); conditions: 60 mg/kg s.c. for 3 days; control 2.02 ± 0.28; DHEA significantly greater than control, p < .001
Procedure: Estrogenic and Anti-Estrogenic Activity
Female CD rats, 26-27 days old, were injected subcutaneously for 3 days with one of the compounds of the present invention at 60 mg/kg in propylene glycol. Controls received propylene glycol alone. On the 4th day, the rats were killed and the uteri were dissected out and weighed.

[10] = Table 3, oral 25 mg/kg, no steroid 70.2, TPA alone 154
[11] = Table 3, oral 50 mg/kg, no steroid 70.2, TPA alone 154
[12] = Table 3, oral 100 mg/kg, no steroid 70.2, TPA alone 154

| SMILES | effect on liver (type of hepatomegaly) [1] | effect on 3H-DMBA binding to skin DNA (mouse skin DNA) | CATALASE ACTIVITY (liver catalase) [Units per mg protein] | catalase activity, in words (liver catalase) | LIVER WEIGHT [4] [gm/gm body weight] | liver weight, in words [4] | inhibition at 10 µM ([5]; 10^-5 M) [%] | Percent Inhibition of G6PDH ([5]; 10^-6 M) | inhibition at 1 µM ([5]; 10^-6 M) [%] | inhibition at 0.1 µM ([5]; 10^-7 M) [%] | Percent Inhibition of G6PDH ([5]; 10^-5 M) | Percent Inhibition of G6PDH ([5]; 10^-7 M) [%] | other results |
| --- | --- | --- | --- | --- | --- | --- | --- | --- | --- | --- | --- | --- | --- |
| CCC1(c2ccccc2)C(=O)NC(=O)NC1=O [phenobarbital] | stimulate proliferation of smooth endoplasmic reticulum in liver cells and induce microsomal drug metabolizing enzymes | – | – | – | – | – | – | – | – | – | – | – | – |
| C[C@]12CCCC[C@@H]1CC[C@@H]1[C@@H]2CC[C@]2(C)C(=O)[C@H](F)C[C@@H]12 [B] | – | inhibit ^3 H-DMBA binding to skin DNA | 32.2 ± 6.0 | no effect on liver weight or catalase activity | 0.061 ± 0.002 | no effect on liver weight; also recorded: neither increased liver weight | 96 | 84% | 82 | 36 | – | – | estrogenic and androgenic side-effects [2]: lacking the estrogenic and androgenic side-effects of DHEA; SPECIFIC ACTIVITY, TPA stimulated 3H-thymidine incorporation [3, 10]: 66.1 ± 9.8 cpm/ug DNA; SPECIFIC ACTIVITY, TPA stimulated 3H-thymidine incorporation [3, 11]: 25.6 ± 4.0 cpm/ug DNA; SPECIFIC ACTIVITY, TPA stimulated 3H-thymidine incorporation [3, 12]: 7.2 ± 3.8 cpm/ug DNA |
| C[C@@H]1C[C@H]2[C@@H]3CC=C4CCCC[C@]4(C)[C@H]3CC[C@]2(C)C1=O [C] | – | – | – | – | – | – | 54 | 31% | 33 | 20 | 52% | 24 | – |
| C[C@]12CCCCC1=CC[C@@H]1[C@@H]2CC[C@]2(C)C(=O)[C@](C)(F)C[C@@H]12 [F] | – | – | – | – | – | – | 82 | 69% | 66 | 28 | – | 34 | – |
| C[C@]12CC[C@H]3[C@@H](CCC4=CC(=O)CC[C@@]43C)[C@@H]1CC[C@@H]2O [testosterone] | – | – | – | – | – | – | – | – | – | – | – | – | mean body weight ([6]; topical 400 ug, ad libitum fed 27.4±1.0): 28.3±0.9 gm; average food consumed ([6]; ad libitum fed 3.8): 4.0 gm/mouse/day; SPECIFIC ACTIVITY, (3H) DMBA binding to skin DNA (mouse skin DNA; 400 ug topical one hour before DMBA, ad libitum fed 116 ± 5.2): 164 ± 8.4 cpm/ug DNA; effect on rate of binding of 3H-DMBA to skin DNA (mouse skin DNA; topical, in words (Table 4)): without inhibitory effect; SPECIFIC ACTIVITY, TPA stimulated 3H-thymidine incorporation ([7]; topical 100 ug): 128 ± 13 cpm/ug DNA; SPECIFIC ACTIVITY, TPA stimulated 3H-thymidine incorporation ([7]; topical 400 ug): 142 ± 5.9 cpm/ug DNA |
| C[C@]12CCCCC1=CC[C@@H]1[C@@H]2CC[C@]2(C)C(=O)[C@H](O)C[C@@H]12 [Compound 8353] | – | inhibit ^3 H-DMBA binding to skin DNA | – | – | – | – | 77 | 36% and 29% and 38% | 30 | – | – | – | mean weekly weight ± S.D. ([8]; week 0, control 23 ± 1.5): 23.3 ± 1.6 grams; mean weekly weight ± S.D. ([8]; week 1, control 25.0 ± 1.6): 21.1 ± 1.4 grams; mean weekly weight ± S.D. ([8]; week 2, control 27.0 ± 1.6): 21.9 ± 1.0 grams; mean weekly weight ± S.D. ([8]; week 3, control 27.3 ± 1.6): 23.6 ± 1.5 grams; mean weekly weight ± S.D. ([8]; week 4, control 27.5 ± 1.9): 23.5 ± 1.5 grams; SPECIFIC ACTIVITY, TPA stimulated 3H-thymidine incorporation ([3]; Table 8, 75 mg/kg, p.o.): 15.9 ± 2.4 cpm/ug DNA; SPECIFIC ACTIVITY, TPA stimulated 3H-thymidine incorporation ([3]; Table 8, 150 mg/kg, p.o.): 14.0 ± 1.1 cpm/ug DNA; SPECIFIC ACTIVITY, TPA stimulated 3H-thymidine incorporation ([3]; Table 8, 200 mg/kg, p.o.): 14.3 ± 1.7 cpm/ug DNA; Mean Uterine Weight ± S.D. [9]: 2.15 ± 0.17 mg/100 gm body weight |
| Clc1ccc(C(c2ccc(Cl)cc2)C(Cl)(Cl)Cl)cc1 [DDT] | stimulate proliferation of smooth endoplasmic reticulum in liver cells and induce microsomal drug metabolizing enzymes | – | – | – | – | – | – | – | – | – | – | – | – |
| CCOC(=O)C(C)(C)Oc1ccc(Cl)cc1 [Clofibrate, clofibrate, reference compound] | Typical peroxisome proliferators | – | 92.1 ± 8.9 | stimulated catalase activity | 0.084 ± 0.006 | increased liver weight; also recorded: hepatomegaly | – | – | – | – | – | – | increase in liver catalase specific activity (liver catalase; 0.25%, vs control): threefold |
| C[C@]12CCCC[C@@H]1CC[C@@H]1[C@@H]2CC[C@]2(C)C(=O)[C@H](O)C[C@@H]12 [A] | – | inhibit ^3 H-DMBA binding to skin DNA | 42.3 ± 7.2 | no effect on liver weight or catalase activity | 0.058 ± 0.004 | no effect on liver weight; also recorded: neither increased liver weight | 94 | – | 72 | 17 | 92% and 91% | 25 | estrogenic and androgenic side-effects [2]: lacking the estrogenic and androgenic side-effects of DHEA; SPECIFIC ACTIVITY, TPA stimulated 3H-thymidine incorporation [3, 10]: 77.4 ± 10.4 cpm/ug DNA; SPECIFIC ACTIVITY, TPA stimulated 3H-thymidine incorporation [3, 11]: 35.2 ± 1.8 cpm/ug DNA; SPECIFIC ACTIVITY, TPA stimulated 3H-thymidine incorporation [3, 12]: 8.1 ± 4.1 cpm/ug DNA |
| C[C@H]1C[C@H]2[C@@H]3CC=C4CCCC[C@]4(C)[C@H]3CC[C@]2(C)C1=O [D] | – | – | – | – | – | – | 44 | 20% | 13 | – | 47% | – | – |
